# Tests used:
# [1] = system: morningglory; assay: Test A postemergence; assay type: in vivo, Ipomoea spp.
# Summary of the method: (§1)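 Scoring was visual, on a scale where 100 means complete control and 0 means no effect, comparing treated with untreated plants around 10 days post-application. Compounds in surfactant-containing non-phytotoxic solvent were sprayed onto soil preemergence or onto one- to two-leaf seedlings (2–10 cm) postemergence.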
# [2] = system: wheat; assay: Test A postemergence; assay type: in vivo, Triticum aestivum
# Summary of the method: as §1
# [3] = system: soybean; assay: Test C preemergence; assay type: in vivo, Glycine max; details: for Plant response rating (scale of 0 to 100), Soybean: Preemergence, 250 g ai/ha; for Soybean plant response rating: preemergence
# Summary of the method: (§2)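 In this greenhouse assay, seeded soil (loam plus sand) or emerged seedlings in peat-vermiculite medium were treated with formulated compound. Roughly two weeks later (13–15 days), each species was scored visually relative to controls, from 0 for no effect to 100 for complete control.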
# [4] = system: barnyardgrass; assay: Test C preemergence; assay type: in vivo, Echinochloa crus-galli; details: for Plant response rating (scale of 0 to 100), Barnyardgrass: Preemergence, 250 g ai/ha; for Barnyardgrass plant response rating: preemergence
# Summary of the method: as §2
# [5] = system: oat, wild; assay: Test C postemergence; assay type: in vivo, Avena fatua; details: for Plant response rating (scale of 0 to 100 where 0 is no effect and 100 is complete control), Oat, Wild: Postemergence, 31 g ai/ha, visually evaluated after 13 to 15 days; for Oat, Wild plant response rating / Plant response rating, Oat, Wild: postemergence; for Oat, Wild plant response rating: 62 g ai/ha, scale 0 to 100
# Summary of the method: as §2
# [6] = system: lambsquarters; assay: Test C preemergence; assay type: in vivo, Chenopodium album; details: for Plant response rating (scale of 0 to 100), Lambsquarters: Preemergence, 250 g ai/ha; for Lambsquarters plant response rating: preemergence
# Summary of the method: as §2
# [7] = system: velvetleaf; assay: Test A postemergence; assay type: in vivo, Abutilon theophrasti
# Summary of the method: as §1
# [8] = system: chickweed; assay: Test C postemergence; assay type: in vivo, Stellaria media; details: for Plant response rating (scale of 0 to 100 where 0 is no effect and 100 is complete control), Chickweed: Postemergence, 31 g ai/ha, visually evaluated after 13 to 15 days; for Chickweed plant response rating / Plant response rating, Chickweed: postemergence; for Chickweed plant response rating: 62 g ai/ha, scale 0 to 100
# Summary of the method: as §2
# [9] = system: sedge, umbrella; assay: Test B flood; assay type: in vivo, Cyperus difformis; details: 250 g ai/ha, visual rating on 0 to 100 scale (0 no effect, 100 complete control), 13 to 15 days
# Summary of the method: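 Two-leaf-stage plants, pots flooded (3 cm above soil) and treated through the water, which stayed at that depth. After 13–15 days in greenhouse conditions, visual assessment versus controls: 0 is no effect, 100 complete control, dash means no result.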
# [10] = system: morningglory; assay: Test C postemergence; assay type: in vivo, Ipomoea coccinea; details: for Plant response rating (scale of 0 to 100 where 0 is no effect and 100 is complete control), Morningglory: Postemergence, 31 g ai/ha, visually evaluated after 13 to 15 days; for Morningglory plant response rating / Plant response rating, Morningglory: postemergence; for Morningglory plant response rating: 62 g ai/ha, scale 0 to 100
# Summary of the method: as §2
# [11] = system: velvetleaf; assay: Test C preemergence; assay type: in vivo, Abutilon theophrasti; details: for Plant response rating (scale of 0 to 100), Velvetleaf: Preemergence, 250 g ai/ha; for Velvetleaf plant response rating: preemergence
# Summary of the method: as §2
# [12] = system: velvetleaf; assay: Test C postemergence; assay type: in vivo, Abutilon theophrasti; details: for Plant response rating (scale of 0 to 100 where 0 is no effect and 100 is complete control), Velvetleaf: Postemergence, 31 g ai/ha, visually evaluated after 13 to 15 days; for Velvetleaf plant response rating / Plant response rating, Velvetleaf: postemergence; for Velvetleaf plant response rating: 62 g ai/ha, scale 0 to 100
# Summary of the method: as §2
# [13] = system: johnsongrass; assay: Test C postemergence; assay type: in vivo, Sorghum halepense; details: for Plant response rating (scale of 0 to 100 where 0 is no effect and 100 is complete control), Johnsongrass: Postemergence, 31 g ai/ha, visually evaluated after 13 to 15 days; for Johnsongrass plant response rating / Plant response rating, Johnsongrass: postemergence; for Johnsongrass plant response rating: 62 g ai/ha, scale 0 to 100
# Summary of the method: as §2
# [14] = system: morningglory; assay: Test C preemergence; assay type: in vivo, Ipomoea coccinea; details: for Plant response rating (scale of 0 to 100), Morningglory: Preemergence, 250 g ai/ha; for Morningglory plant response rating: preemergence
# Summary of the method: as §2
# [15] = Postemergence, 500 g ai/ha, visual rating after approx. 10 days, 0 to 100 scale (0 no effect, 100 complete control)
# [16] = postemergence, 125 g ai/ha, about 10 days, visual rating on 0 to 100 scale (0 no effect, 100 complete control)
# [17] = 31 g ai/ha, visual rating, scale 0 to 100 (0 no effect, 100 complete control), 13 to 15 days
# [18] = 62 g ai/ha, scale 0 to 100 (0 no effect, 100 complete control), 13 to 15 days
# [19] = 125 g ai/ha, scale 0 to 100, 0 is no effect, 100 is complete control
# [20] = 31 g ai/ha, scale 0 to 100 (0 no effect, 100 complete control), 13 to 15 days
# [21] = 250 g ai/ha, scale 0 to 100 (0 no effect, 100 complete control)
# [22] = 125 g ai/ha, scale 0 to 100, 0 no effect, 100 complete control
smiles,measurement,setting,value
"CCc1cc(C(=O)NCC(F)(F)F)nn1Cc1cc(C(F)(F)F)nn1C [Compound 108, 5-ethyl-1-[[1-methyl-3-(trifluoromethyl)-1H-pyrazole-5-yl]methyl]-N-(2,2,2-trifluoroethyl)-1H-pyrazole-3-carboxamide]",Morningglory plant response rating,[1]; [15],100
same,Morningglory plant response rating,[1]; [16],90
same,Wheat plant response rating,[2]; [15],90
same,Wheat plant response rating,[2]; [16],40
same,"Plant response rating (scale of 0 to 100), Soybean",[3],98
same,Soybean plant response rating,[3]; [17],20
same,Soybean plant response rating,[3]; [18],90
same,Soybean plant response rating,[3]; [19],95
same,"Plant response rating (scale of 0 to 100), Barnyardgrass",[4],100
same,Barnyardgrass plant response rating,[4]; [20],50
same,Barnyardgrass plant response rating,[4]; [18],100
same,Barnyardgrass plant response rating,[4]; [19],100
same,"Plant response rating (scale of 0 to 100 where 0 is no effect and 100 is complete control), Oat, Wild",[5],10
same,"Oat, Wild plant response rating",[5],10
same,"Plant response rating, Oat, Wild",[5]; [21],20
same,"Plant response rating, Oat, Wild",[5]; [22],15
same,"Plant response rating (scale of 0 to 100), Lambsquarters",[6],100
same,Lambsquarters plant response rating,[6]; [17],100
same,Lambsquarters plant response rating,[6]; [18],100
same,Lambsquarters plant response rating,[6]; [19],100
same,Velvetleaf plant response rating,[7]; [15],100
same,Velvetleaf plant response rating,[7]; [16],60
same,"Plant response rating (scale of 0 to 100 where 0 is no effect and 100 is complete control), Chickweed",[8],85
same,Chickweed plant response rating,[8],100
same,"Plant response rating, Chickweed",[8]; [21],100
same,"Plant response rating, Chickweed",[8]; [22],100
same,"Plant response rating, Sedge, Umbrella",[9],70
same,"Plant response rating (scale of 0 to 100 where 0 is no effect and 100 is complete control), Morningglory",[10],50
same,Morningglory plant response rating,[10],50
same,"Plant response rating, Morningglory",[10]; [21],90
same,"Plant response rating, Morningglory",[10]; [22],80
same,"Plant response rating (scale of 0 to 100), Velvetleaf",[11],100
same,Velvetleaf plant response rating,[11]; [17],55
same,Velvetleaf plant response rating,[11]; [18],100
same,Velvetleaf plant response rating,[11]; [19],100
same,"Plant response rating (scale of 0 to 100 where 0 is no effect and 100 is complete control), Velvetleaf",[12],5
same,Velvetleaf plant response rating,[12],10
same,"Plant response rating, Velvetleaf",[12]; [21],40
same,"Plant response rating, Velvetleaf",[12]; [22],35
same,"Plant response rating (scale of 0 to 100 where 0 is no effect and 100 is complete control), Johnsongrass",[13],0
same,Johnsongrass plant response rating,[13],0
same,"Plant response rating, Johnsongrass",[13]; [21],5
same,"Plant response rating, Johnsongrass",[13]; [22],0
same,"Plant response rating (scale of 0 to 100), Morningglory",[14],100
same,Morningglory plant response rating,[14]; [17],98
same,Morningglory plant response rating,[14]; [18],100
same,Morningglory plant response rating,[14]; [19],100
CCCNC(=O)c1cc(CC)n(Cc2nc(C(F)(F)F)nn2C)n1 [Compound 109],Morningglory plant response rating,[1]; [15],100
same,Morningglory plant response rating,[1]; [16],90
same,Wheat plant response rating,[2]; [15],80
same,Wheat plant response rating,[2]; [16],50
same,"Plant response rating (scale of 0 to 100), Soybean",[3],98
same,Soybean plant response rating,[3]; [17],70
same,Soybean plant response rating,[3]; [18],95
same,Soybean plant response rating,[3]; [19],98
same,"Plant response rating (scale of 0 to 100), Barnyardgrass",[4],100
same,Barnyardgrass plant response rating,[4]; [20],100
same,Barnyardgrass plant response rating,[4]; [18],100
same,Barnyardgrass plant response rating,[4]; [19],100
same,"Plant response rating (scale of 0 to 100 where 0 is no effect and 100 is complete control), Oat, Wild",[5],0
same,"Oat, Wild plant response rating",[5],5
same,"Plant response rating, Oat, Wild",[5]; [21],5
same,"Plant response rating, Oat, Wild",[5]; [22],5
same,"Plant response rating (scale of 0 to 100), Lambsquarters",[6],100
same,Lambsquarters plant response rating,[6]; [17],100
same,Lambsquarters plant response rating,[6]; [18],100
same,Lambsquarters plant response rating,[6]; [19],100
same,Velvetleaf plant response rating,[7]; [15],90
same,Velvetleaf plant response rating,[7]; [16],60
same,"Plant response rating (scale of 0 to 100 where 0 is no effect and 100 is complete control), Chickweed",[8],40
same,Chickweed plant response rating,[8],50
same,"Plant response rating, Chickweed",[8]; [21],65
same,"Plant response rating, Chickweed",[8]; [22],55
same,"Plant response rating, Sedge, Umbrella",[9],0
same,"Plant response rating (scale of 0 to 100 where 0 is no effect and 100 is complete control), Morningglory",[10],65
same,Morningglory plant response rating,[10],70
same,"Plant response rating, Morningglory",[10]; [21],85
same,"Plant response rating, Morningglory",[10]; [22],75
same,"Plant response rating (scale of 0 to 100), Velvetleaf",[11],100
same,Velvetleaf plant response rating,[11]; [17],10
same,Velvetleaf plant response rating,[11]; [18],80
same,Velvetleaf plant response rating,[11]; [19],100
same,"Plant response rating (scale of 0 to 100 where 0 is no effect and 100 is complete control), Velvetleaf",[12],10
same,Velvetleaf plant response rating,[12],15
same,"Plant response rating, Velvetleaf",[12]; [21],35
same,"Plant response rating, Velvetleaf",[12]; [22],25
same,"Plant response rating (scale of 0 to 100 where 0 is no effect and 100 is complete control), Johnsongrass",[13],5
same,Johnsongrass plant response rating,[13],5
same,"Plant response rating, Johnsongrass",[13]; [21],10
same,"Plant response rating, Johnsongrass",[13]; [22],5
same,"Plant response rating (scale of 0 to 100), Morningglory",[14],100
same,Morningglory plant response rating,[14]; [17],95
same,Morningglory plant response rating,[14]; [18],100
same,Morningglory plant response rating,[14]; [19],100
